Experimental data taken from PubChem BioAssay (NCI).
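Step 1: Grow cells in 96-well plates. Step 2: Expose to compound for 48 hours at 5 concentrations. Step 3: Interpolate endpoints linearly; if unreached, use highest concentration. GI50 is the concentration that inhibits growth by half. TGI denotes the concentration required for complete inhibition of growth.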 Where a SMILES comes first, the peptide text is derived from it. [ ]: non-standard residue; d: D form. 2Nal = N[CH](Cc1ccc2ccccc2c1)C(=O)O

How the values were obtained:
Test in all cases: growth of human tumour cells (NCI), 48 h
786-0 renal = tested on: 786-0 renal
NCI-H460 lung = tested on: NCI-H460 lung
NCI/ADR-RES ovarian = tested on: NCI/ADR-RES ovarian
OVCAR-3 ovarian = tested on: OVCAR-3 ovarian
OVCAR-5 ovarian = tested on: OVCAR-5 ovarian
PC-3 prostate = tested on: PC-3 prostate
SF-539 CNS = tested on: SF-539 CNS
SK-MEL-5 melanoma = tested on: SK-MEL-5 melanoma
TK-10 renal = tested on: TK-10 renal
OVCAR-4 ovarian = tested on: OVCAR-4 ovarian

## COC(=O)C1=C(C(=O)OC)C2OC1c1cc3ccccc3cc12
786-0 renal
  TGI: 3.29 µM
NCI-H460 lung
  TGI: 46.3 µM
NCI/ADR-RES ovarian
  TGI: 30.7 µM
OVCAR-3 ovarian
  TGI: 7.29 µM
OVCAR-5 ovarian
  TGI: 11.3 µM
PC-3 prostate
  TGI: 32.2 µM
SF-539 CNS
  TGI: 12.1 µM
SK-MEL-5 melanoma
  TGI: 30.8 µM
TK-10 renal
  TGI: 11.3 µM

## O=C(NNC(=S)Nc1ccccc1)c1ccccn1
786-0 renal
  GI50: 2.81 µM
  TGI: > 100 µM
NCI-H460 lung
  GI50: 1.06 µM
  TGI: > 100 µM
NCI/ADR-RES ovarian
  GI50: 2.84 µM
  TGI: > 100 µM
OVCAR-3 ovarian
  GI50: 6.83 µM
  TGI: > 100 µM
OVCAR-4 ovarian
  GI50: 1.46 µM
  TGI: > 100 µM
OVCAR-5 ovarian
  GI50: > 100 µM
  TGI: > 100 µM
PC-3 prostate
  GI50: 2.87 µM
  TGI: > 100 µM
SF-539 CNS
  GI50: 2.43 µM
  TGI: 20.8 µM
SK-MEL-5 melanoma
  GI50: 2.11 µM
  TGI: > 100 µM

## CCOC(=O)c1cc(-c2ccc(OC)c(OC)c2)[nH]c1N/N=C/c1c(Cl)cccc1Cl
786-0 renal
  GI50: 2.77 µM
  TGI: 12.3 µM
NCI-H460 lung
  GI50: 1.35 µM
  TGI: > 35.9 µM
NCI/ADR-RES ovarian
  GI50: 1.15 µM
  TGI: 4.53 µM
OVCAR-3 ovarian
  GI50: 0.74 µM
  TGI: 2.64 µM
OVCAR-4 ovarian
  GI50: 4.46 µM
  TGI: > 62.7 µM
OVCAR-5 ovarian
  GI50: 4.56 µM
  TGI: 20.3 µM
PC-3 prostate
  GI50: 2.14 µM
  TGI: 19 µM
SF-539 CNS
  GI50: 1.44 µM
  TGI: 5.27 µM
SK-MEL-5 melanoma
  GI50: 0.956 µM
  TGI: 8.33 µM
TK-10 renal
  GI50: 2.5 µM
  TGI: 11.4 µM

## CC1CCc2c(c(CC3CC(=O)NC(=O)C3)nn2-c2ccccc2)C1 (stereo unspecified)
786-0 renal
  TGI: > 100 µM
NCI-H460 lung
  TGI: > 100 µM
NCI/ADR-RES ovarian
  TGI: > 100 µM
OVCAR-3 ovarian
  TGI: > 100 µM
OVCAR-4 ovarian
  TGI: > 100 µM
OVCAR-5 ovarian
  TGI: > 100 µM
PC-3 prostate
  TGI: > 100 µM
SF-539 CNS
  TGI: > 100 µM
SK-MEL-5 melanoma
  TGI: > 100 µM
TK-10 renal
  TGI: > 100 µM

## C=C1C(=O)OC2CC3(C)CCCC(C)C3=CC12 (stereo unspecified)
786-0 renal
  TGI: 11.6 µM
NCI-H460 lung
  TGI: 13.7 µM
NCI/ADR-RES ovarian
  TGI: 56.7 µM
OVCAR-4 ovarian
  TGI: 20.2 µM
OVCAR-5 ovarian
  TGI: 23.4 µM
PC-3 prostate
  TGI: 39.2 µM
SF-539 CNS
  TGI: 3.79 µM
SK-MEL-5 melanoma
  TGI: 4.6 µM
TK-10 renal
  TGI: 10.1 µM

## CC(O)CN1c2ccccc2Sc2ccc(Cl)cc21 (stereo unspecified)
786-0 renal
  TGI: > 10 µM
NCI-H460 lung
  TGI: > 10 µM
NCI/ADR-RES ovarian
  TGI: > 10 µM
OVCAR-3 ovarian
  TGI: > 10 µM
OVCAR-4 ovarian
  TGI: > 10 µM
OVCAR-5 ovarian
  TGI: > 10 µM
PC-3 prostate
  TGI: > 10 µM
SF-539 CNS
  TGI: > 10 µM
SK-MEL-5 melanoma
  TGI: > 10 µM
TK-10 renal
  TGI: > 10 µM

## O=C(Nc1nc(-c2ccc(Cl)cc2)nc2c1sc(=S)n2-c1ccccc1)C(F)(F)F
786-0 renal
  GI50: 1.67 µM
  TGI: 3.27 µM
NCI-H460 lung
  GI50: 2.72 µM
  TGI: 7.26 µM
NCI/ADR-RES ovarian
  GI50: 3.58 µM
  TGI: 19.3 µM
OVCAR-3 ovarian
  GI50: 2.81 µM
  TGI: 6.97 µM
OVCAR-4 ovarian
  GI50: 1.95 µM
  TGI: 4.19 µM
OVCAR-5 ovarian
  GI50: 6.23 µM
  TGI: 26.6 µM
PC-3 prostate
  GI50: 8.95 µM
  TGI: 71.4 µM
SF-539 CNS
  GI50: 1.98 µM
  TGI: 3.88 µM
SK-MEL-5 melanoma
  GI50: 8.23 µM
  TGI: 32.3 µM

## C=C1CCC2C3(C)COC(c4ccc(Cl)cc4)OC3CCC2(C)C1/C=C/C1=CCOC1=O (stereo unspecified)
786-0 renal
  GI50: 29.8 µM
  TGI: > 100 µM
NCI-H460 lung
  GI50: 4.42 µM
  TGI: > 100 µM
NCI/ADR-RES ovarian
  GI50: 4.98 µM
  TGI: > 100 µM
OVCAR-3 ovarian
  GI50: 7.52 µM
  TGI: 56.8 µM
OVCAR-5 ovarian
  GI50: 70.2 µM
  TGI: > 100 µM
PC-3 prostate
  GI50: 1.67 µM
  TGI: 69.9 µM
SF-539 CNS
  GI50: 11.2 µM
  TGI: > 100 µM
SK-MEL-5 melanoma
  GI50: 1.88 µM
  TGI: 31.1 µM
TK-10 renal
  GI50: 14.4 µM
  TGI: > 100 µM

## CC1=NN(C(=O)c2ccncc2)C(=O)C1N=Nc1ccc2ccccc2c1 (stereo unspecified)
786-0 renal
  TGI: > 100 µM
NCI-H460 lung
  TGI: > 100 µM
NCI/ADR-RES ovarian
  TGI: > 100 µM
OVCAR-3 ovarian
  TGI: > 100 µM
OVCAR-4 ovarian
  TGI: > 100 µM
OVCAR-5 ovarian
  TGI: > 100 µM
PC-3 prostate
  TGI: > 100 µM
SF-539 CNS
  TGI: > 100 µM
SK-MEL-5 melanoma
  TGI: > 100 µM
TK-10 renal
  TGI: > 100 µM

## C/C=C(/C)C(=O)OC1C=C(CO)C(=O)C(OC(=O)C(C)(O)C(C)Cl)C1C(C)C (stereo unspecified)
786-0 renal
  GI50: 1.67 µM
  TGI: 3.12 µM
NCI-H460 lung
  GI50: 2.28 µM
  TGI: 8.62 µM
NCI/ADR-RES ovarian
  GI50: 2.31 µM
  TGI: 13.3 µM
OVCAR-3 ovarian
  GI50: 0.648 µM
  TGI: 1.98 µM
OVCAR-4 ovarian
  GI50: 1.87 µM
  TGI: 3.95 µM
OVCAR-5 ovarian
  GI50: 0.971 µM
  TGI: 2.72 µM
PC-3 prostate
  GI50: 1.45 µM
  TGI: 3.3 µM
SF-539 CNS
  GI50: 1.28 µM
  TGI: 2.62 µM
SK-MEL-5 melanoma
  GI50: 1.38 µM
  TGI: 2.75 µM
TK-10 renal
  GI50: 1.55 µM
  TGI: 3.05 µM

## CCCN1C(=O)/C(=C/c2ccc(O)cc2)SC1=Nc1ccc(OC)cc1
786-0 renal
  GI50: 16 µM
  TGI: 34.6 µM
NCI-H460 lung
  GI50: 17.6 µM
  TGI: 66.7 µM
NCI/ADR-RES ovarian
  GI50: 14 µM
  TGI: 29.5 µM
OVCAR-3 ovarian
  GI50: 17.3 µM
  TGI: 42.8 µM
OVCAR-4 ovarian
  GI50: 13.4 µM
  TGI: 35.2 µM
OVCAR-5 ovarian
  GI50: 15.9 µM
  TGI: 29.6 µM
PC-3 prostate
  GI50: 14 µM
  TGI: 31.7 µM
SF-539 CNS
  GI50: 16.2 µM
  TGI: 33.1 µM
SK-MEL-5 melanoma
  GI50: 11 µM
  TGI: 26 µM
TK-10 renal
  GI50: 18.4 µM
  TGI: 39 µM

## CSc1ccc(C2=NN(C(C)=O)C(c3ccc(F)cc3)C2)cc1 (stereo unspecified)
786-0 renal
  GI50: 15.6 µM
  TGI: 35.7 µM
NCI-H460 lung
  GI50: 15.9 µM
  TGI: 50.7 µM
NCI/ADR-RES ovarian
  GI50: 16.4 µM
  TGI: 32.9 µM
OVCAR-3 ovarian
  GI50: 16.2 µM
  TGI: 49.5 µM
OVCAR-4 ovarian
  GI50: 15.9 µM
  TGI: 37.5 µM
OVCAR-5 ovarian
  GI50: 18.9 µM
  TGI: 43.7 µM
PC-3 prostate
  GI50: 12.7 µM
  TGI: 42.4 µM
SF-539 CNS
  GI50: 17.5 µM
  TGI: 35.4 µM
SK-MEL-5 melanoma
  GI50: 12.9 µM
  TGI: 26.4 µM
TK-10 renal
  GI50: 19.8 µM
  TGI: 63.7 µM

## CC(=O)O[C@H]1C(=O)[C@@]2(C)[C@H]([C@H](OC(=O)c3ccccc3)[C@@]3(O)C[C@H](O)C(C)=C1C3(C)C)[C@]1(OC(C)=O)CO[C@@H]1C[C@@H]2O
786-0 renal
  TGI: > 100 µM
NCI-H460 lung
  TGI: > 100 µM
NCI/ADR-RES ovarian
  TGI: > 100 µM
OVCAR-3 ovarian
  TGI: > 100 µM
OVCAR-4 ovarian
  TGI: > 100 µM
OVCAR-5 ovarian
  TGI: > 100 µM
PC-3 prostate
  TGI: > 100 µM
SF-539 CNS
  TGI: > 100 µM
SK-MEL-5 melanoma
  TGI: > 100 µM
TK-10 renal
  TGI: > 100 µM

## CC(C)C(NC(=O)C(CCCCN)NC(=O)C(Cc1c[nH]c2ccccc12)NC(=O)C(Cc1ccc(O)cc1)NC(=O)C(CS)NC(=O)C(N)Cc1ccc2ccccc2c1)C(=O)NC(CS)C(=O)NC(C(N)=O)C(C)O (stereo unspecified) (H-[2Nal]CYWKVCT-NH2; configuration not given here)
786-0 renal
  GI50: > 100 µM
  TGI: > 100 µM
NCI-H460 lung
  GI50: > 100 µM
  TGI: > 100 µM
NCI/ADR-RES ovarian
  TGI: > 12.5 µM
OVCAR-3 ovarian
  GI50: > 100 µM
  TGI: > 100 µM
OVCAR-4 ovarian
  GI50: > 100 µM
  TGI: > 100 µM
OVCAR-5 ovarian
  TGI: > 12.5 µM
PC-3 prostate
  TGI: > 12.5 µM
SF-539 CNS
  GI50: > 100 µM
  TGI: > 100 µM
SK-MEL-5 melanoma
  TGI: > 12.5 µM

## COc1ccc(/C=C2\CC(C)CC3C2=NN(c2ccccc2)C3c2ccc(OC)c(OC)c2)cc1OC (stereo unspecified)
786-0 renal
  GI50: 5.24 µM
  TGI: 37.3 µM
NCI-H460 lung
  GI50: 3.09 µM
  TGI: 12.4 µM
NCI/ADR-RES ovarian
  GI50: 2.71 µM
  TGI: 9.51 µM
OVCAR-3 ovarian
  GI50: 3.71 µM
  TGI: > 100 µM
OVCAR-4 ovarian
  GI50: 3.65 µM
  TGI: > 100 µM
OVCAR-5 ovarian
  GI50: 3.16 µM
  TGI: 12.1 µM
PC-3 prostate
  GI50: 6.32 µM
  TGI: > 100 µM
SF-539 CNS
  GI50: 4.46 µM
  TGI: 24.9 µM
SK-MEL-5 melanoma
  GI50: 2.41 µM
  TGI: 6.94 µM
TK-10 renal
  GI50: 5.78 µM
  TGI: > 100 µM
